# Assay results: patent US7125903B1 (Aventis Pharmaceuticals Inc., priority 1999, dated 2006)
# Where a name gives a salt, the structure may show the parent alone.
# Molecular target: T1, human D4 receptor (D4.2 sub-type) (Homo sapiens, UniProt P21917, DEL265-296)
# T1 construct: expressed in transfected cells
# T1 sequence (P21917 with tags, fused parts or gaps DEL265-296): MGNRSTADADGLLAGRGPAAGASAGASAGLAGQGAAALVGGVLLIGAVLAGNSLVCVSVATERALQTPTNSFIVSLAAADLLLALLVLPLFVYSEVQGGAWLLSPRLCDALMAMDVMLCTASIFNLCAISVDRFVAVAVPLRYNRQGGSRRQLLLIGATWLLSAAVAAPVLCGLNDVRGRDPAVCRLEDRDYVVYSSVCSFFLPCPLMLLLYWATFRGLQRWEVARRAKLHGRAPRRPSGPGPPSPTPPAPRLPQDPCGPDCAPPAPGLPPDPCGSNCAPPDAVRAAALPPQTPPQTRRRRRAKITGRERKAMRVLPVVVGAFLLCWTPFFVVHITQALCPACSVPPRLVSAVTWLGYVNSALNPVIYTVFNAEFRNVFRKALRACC
# Assay: D4 receptor binding assay (3H-spiperone displacement)
# Conditions: 1 μM test compound, inhibition of 3H-spiperone binding; read-out: D4 RBA % Inhib. @ 1 μM
# Description: D4 receptor-binding affinities of the compounds were evaluated according to their ability to reduce binding of ^3H-spiperone as compared to the reference compound clozapine. The potency of the test compound to reduce ^3H-spiperone binding directly correlated to its binding affinity for the receptor.
# […] (human embryonic kidney) cells stably transfected with human D4 receptor (D4.2 sub-type) were grown in NUNC cell factories for 5 days (75% confluency) without a media change and removed with versene (approximately 19 mg of cells per cell factory tray). The cells were then centrifuged in a Sorval centrifuge for 10 min, 5000 rpm (GS3 rotor) and the pellets quickly frozen in liquid nitrogen and stored at −80° C. until used in binding assay. When used in the assay, cells were thawed on ice for 20 min and then 10 mL of incubation buffer (50 mM Tris, 1 mM EDTA, 4 mM MgCl2, 5 mM KCl, 1.5 mM CaCl2, 120 mM NaCl, pH 7.4) was added. The cells were then vortexed to resuspend pellet and homogenized with a Kinematica, CH-6010 Kriens-LU, homogenizer for 15 seconds at setting 7. Concentration of receptor protein was determined using the Pierce BCA assay.
# The incubation was started by the addition of 100 μl (50 μg protein) membrane homogenate to a solution of 300 μl incubation buffer and 100 μl (0.25 nM final conc.) ^3H-spiperone (90 Ci/mmol, Amersham, diluted in borosilicate glass vial) in 96-well polypropylene plates (1 mL per well). The plates were vortexed and incubated at room temperature for 90 minutes. The binding reaction was stopped by filtering using a Packard Harvester. The samples were filtered under vacuum over glass fibre filter plates (Whatman GF/B) presoaked for 2 hours in 0.3% polyethylenimine (PEI) in 50 mM Tris buffer (pH 7.4). The filters were then washed 6 times with 7 mL ice cold 50 mM Tris buffer (pH 7.4). The filter plates were dried overnight and 35 μl of Microscint-O (Packard) was added. The plates were sealed and counted in the Packard Top Count (3 minutes per well).
# The incubation was started by the addition of 100 μl (50 μg protein) membrane homogenate to a solution of 200 μl incubation buffer, 100 μl ^3H-spiperone (90 Ci/mmol, Amersham, diluted in borosilicate glass vial to 0.25 nM final conc.) and 100 μl (30 μM final conc.) of fresh dopamine (Research Biochemicals Inc., light protected and dissolved in incubation buffer) in 96-well polypropylene plates (1 mL per well). The plates were vortexed and incubated at room temperature for 90 minutes at which time the binding reaction was stopped by filtering. The filters were washed and counted using the same procedure as in the total binding assay described above to give the nonspecific binding value (NSB).
# The incubation was started by the addition, in 96-well polypropylene plates (1 mL per well), of 100 μl (50 μg protein) membrane homogenate to a solution of 200 μl incubation buffer, 100 μl (0.25 nM final conc.) ^3H-spiperone (90 Ci/mmol, Amersham, diluted in borosilicate glass vial) and 100 μl of test compound that was prepared from 1 mM stock dissolved in DMSO and stored at −20° C. in polypropylene cryogenic storage vials until dilution in incubation buffer in 96-well polypropylene plates. The plates were vortexed and incubated at room temperature for 90 minutes at which time the binding reaction was stopped by filtering. The filters were washed and counted using the same procedure as in the total binding assay described above to give the displacement binding value (BD).
# The test compounds were initially assayed at 1 and 0.1 μM and then at a range of concentrations chosen such that the middle dose would cause about 50% inhibition of ^3H-spiperone binding. Specific binding in the absence of test compound (B0) was the difference of total binding (BT) minus non-specific binding (NSB) and similarly specific binding (in the presence of test compound) (B) was the difference of displacement binding (BD) minus non-specific binding (NSB). […]
row,inhibition at 1 µM,Compound
1,58%,"OC(COc1cccc(-c2noc3ccsc23)c1)CN1CCc2ccccc2C1 (racemic) [Compound 1, (±)-1-(3,4-dihydro-1H-isoquinolin-2-yl)-3-[3-(thieno[2,3-d]isoxazol-3-yl)phenoxy]-2-propanol hydrochloride]"
2,57%,O[C@@H](COc1cccc(-c2noc3ccsc23)c1)CN1CCN(Cc2ccc3c(c2)OCO3)CC1 [Example 35]
3,62%,O[C@H](CNCc1ccsc1)COc1ccc(-c2noc3ccsc23)cc1 [Example 41]
4,44%,O[C@H](CNCc1ccco1)COc1ccc(-c2noc3ccsc23)cc1 [Example 42]
5,72%,C[C@@H](NC[C@](C)(O)COc1cccc(-c2noc3ccsc23)c1)c1ccccc1 [Example 55]
6,93%,C[C@H](NC[C@](C)(O)COc1cccc(-c2noc3ccsc23)c1)c1ccccc1 [Example 56]
7,96%,C[C@](O)(CNCc1cccc2ccccc12)COc1cccc(-c2noc3ccsc23)c1 [Example 57]

# Same assay, conditions: 3H-spiperone 0.25 nM, membranes of HEK 298 cells with human D4.2; Cheng-Prusoff from IC50; read-out: D4 RBA Ki
row,Ki,Compound
1,106 nM,CN(Cc1ccccc1)C[C@@H](O)COc1cccc(-c2noc3ccsc23)c1 [Compound 2]
2,26 nM,C[C@@](O)(CNCc1cccs1)COc1cccc(-c2noc3ccsc23)c1 [Compound 5 (freebase)]
3,59.2 nM,"C[C@@](O)(CNCc1cccs1)COc1cccc(-c2noc3ccsc23)c1 [Compound 5 (maleate), (2R)-2-methyl-1-(3-thieno[2,3-d]isoxazol-3-yl-phenoxy)-3-[thienophen-2-ylmethyl)-amino-propan-2-ol maleate]"
4,29.6 nM,"O[C@@H](COc1cccc(-c2noc3ccsc23)c1)CN1CCN(c2ccc(Cl)cc2)CC1 [Compound 7, (2R)-1-[4-(4-chlorophenyl)piperazin-1-yl]-3-(3-thieno[2,3-d]isoxazol-3-yl-phenoxy)propan-2-ol hydrochloride]"
5,1.7 nM,COc1ccccc1N1CCN(C[C@@H](O)COc2cccc(-c3noc4ccsc34)c2)CC1 [Compound 8]
6,17 nM,"O[C@H](CNC1Cc2ccccc2C1)COc1cccc(-c2noc3ccsc23)c1 [Compound 91 (HCl), (2R)-1-(indan-2-ylamino)-3-(3-thieno[2,3-d]isoxazol-3-yl-phenoxy)-propan-2-ol]"
7,13 nM,"O[C@H](CNC1Cc2ccccc2C1)COc1cccc(-c2noc3ccsc23)c1 [Compound 91 (base), (2R)-1-(indan-2-ylamino)-3-(3-thieno[2,3-d]isoxazol-3-yl-phenoxy)-propan-2-ol]"
8,103 nM,O[C@H](CNCc1cccc2ccccc12)COc1cccc(-c2noc3ccsc23)c1 [Example 10]
9,45 nM,C[C@@](O)(CNCc1ccco1)COc1cccc(-c2noc3ccsc23)c1 [Example 17]
10,55 nM,C[C@@](O)(CNCc1cccc2ccccc12)COc1cccc(-c2noc3ccsc23)c1 [Example 21]
11,57 nM,O[C@H](CNCc1ccco1)COc1cccc(-c2noc3ccsc23)c1 [Example 25]
12,84 nM,O[C@@H](COc1cccc(-c2noc3ccsc23)c1)CN1CCN(c2ccccc2C(F)(F)F)CC1 [Example 36]
13,26 nM,CO[C@H](CNCc1ccccc1)COc1cccc(-c2noc3ccsc23)c1 [Example 39]
14,171 nM,O[C@H](CNCc1cccs1)COc1ccc(-c2noc3ccsc23)cc1 [Example 43]
15,80 nM,COc1ccccc1N1CCN(C[C@@H](O)COc2ccc(-c3noc4ccsc34)cc2)CC1 [Example 45]
16,90 nM,CN(Cc1ccccc1)C[C@](C)(O)COc1cccc(-c2noc3ccsc23)c1 [Example 66]
17,19 nM,COc1ccccc1N1CCN(C[C@](C)(O)COc2cccc(-c3noc4ccsc34)c2)CC1 [Example 67]
18,29 nM,C[C@@](O)(COc1cccc(-c2noc3ccsc23)c1)CN1CCN(c2ccccc2C#N)CC1 [Example 68]

row,Compound,Ki
1,O[C@@H](COc1cccc(-c2noc3ccsc23)c1)CN1C2CCC1CC(c1noc3ccccc13)C2 (some centres unmarked) [Example 75],57 nM
